Source: patent publication US10385024B2, “Compounds and methods for inhibiting NHE-mediated antiport in the treatment of disorders associated with fluid retention or salt overload and gastrointestinal tract disorders” (Ardelyx, Inc., priority 2012, dated 2019)

Tests used:
Rat NHE-3 [1] = biological target: T1, Rat NHE-3 (Rattus norvegicus, UniProt P26433); experiment: Cell-based assay of NHE-3 activity (persistent inhibition, after washout); conditions: OK cells with rat NHE-3 gene, 60 min incubation, recovery initiated 40 min after compound washout
T1 construct: expressed in transfected cells; host or cells: Opossum kidney (OK) cells (ATCC), transfected by electroporation
T1 sequence (P26433 29-831): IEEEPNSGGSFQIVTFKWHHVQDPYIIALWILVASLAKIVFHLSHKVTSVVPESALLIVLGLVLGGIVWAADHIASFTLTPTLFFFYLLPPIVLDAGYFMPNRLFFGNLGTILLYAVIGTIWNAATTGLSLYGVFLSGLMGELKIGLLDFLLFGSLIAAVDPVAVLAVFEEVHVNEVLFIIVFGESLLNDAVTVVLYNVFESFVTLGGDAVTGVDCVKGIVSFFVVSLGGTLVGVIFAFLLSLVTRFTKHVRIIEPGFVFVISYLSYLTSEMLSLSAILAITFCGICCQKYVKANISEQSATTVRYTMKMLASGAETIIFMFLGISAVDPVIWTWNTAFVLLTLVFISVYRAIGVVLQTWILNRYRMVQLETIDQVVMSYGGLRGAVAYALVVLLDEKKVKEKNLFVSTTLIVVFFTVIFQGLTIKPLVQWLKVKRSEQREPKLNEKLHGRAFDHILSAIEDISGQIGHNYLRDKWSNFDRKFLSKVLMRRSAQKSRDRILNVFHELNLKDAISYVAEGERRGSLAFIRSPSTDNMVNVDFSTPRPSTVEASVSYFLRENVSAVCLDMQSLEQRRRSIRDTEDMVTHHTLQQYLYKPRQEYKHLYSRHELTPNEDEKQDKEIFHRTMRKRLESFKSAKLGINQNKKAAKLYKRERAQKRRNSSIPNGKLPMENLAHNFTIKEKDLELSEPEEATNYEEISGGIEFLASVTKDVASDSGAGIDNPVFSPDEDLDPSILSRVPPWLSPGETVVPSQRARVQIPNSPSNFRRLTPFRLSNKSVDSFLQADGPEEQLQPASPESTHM
Outline: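 OK cells transiently expressing rat NHE-3 were exposed to 0-30 μM compound in NaCl-HEPES pH 7.4 for 60 min, then washed free of drug before NH4Cl/BCECF-AM loading and acid-loading in Na+-free choline buffer. Na+-dependent pH recovery rates (mean of ≥2 replicates) gave pIC50.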

[2] = system: absorption of sodium from the intestinal lumen; experiment: Inhibition of intestinal sodium absorption (urinary sodium and fecal form); assay type: in vivo, Sprague-Dawley rats; conditions: rat, 3 mg/kg oral gavage, urine 16 h post-dose; asterisks = significance vs vehicle (*P<0.05, **P<0.01, ***P<0.001); read-out: uNa (% of vehicle)
Description: Urinary sodium concentration and fecal form were measured to assess the ability of selected example compounds to inhibit the absorption of sodium from the intestinal lumen. Eight-week old Sprague-Dawley rats were purchased from Charles River Laboratories (Hollister, Calif.), were housed 2 per cage, and acclimated for at least 3 days before study initiation. Animals were fed Harlan Teklad Global 2018 rodent chow (Indianapolis, Ind.) and water ad libitum throughout the study and maintained in a standard light/dark cycle of 6 AM to 6 PM. On the day of the study, between 4 PM and 5 PM, a group of rats (n=6) were dosed via oral gavage with test compound at the dosage indicated or vehicle (water) at a volume of 10 mL/kg. After dose administration animals were placed in individual metabolic cages where they were also fed the same chow in meal form and watered ad libitum. At 16 h post-dose, the urine samples were collected and fecal form was assessed by two independent observations. Fecal forms were scored according to a common scale associated with increasing fecal water to the wettest observation in the cage's collection funnel (1, normal pellet; 2, pellet adhering to sides of collection funnel due to moisture; 3, loss of normal pellet shape; 4, complete loss of shape with a blotting pattern; 5, liquid fecal streams evident). A rat's fecal form score (FFS) was determined by averaging both observational scores for all rats within a group (n=6). In every study the vehicle group average was 1. For urine samples, the volumes were determined gravimetrically and centrifuged at 3,600×g. The supernatants were diluted 100-fold in deionized Milli-Q water then filtered through a 0.2 μm GHP Pall AcroPrep filter plate (Pall Life Sciences, Ann Arbor, Mich.) prior to analysis by ion chromatography. Ten microliters of each filtered extract was injected onto a Dionex ICS-3000 ion chromatograph system (Dionex, Sunnyvale, Calif.). Cations were separated by an isocratic method using 25 mM methanesulfonic acid as the eluent on an IonPac CS12A 2 mm i.d.×250 mm, 8 μm particle size cation exchange column (Dionex). Sodium was quantified using standards prepared from a cation standard mix containing Li^+, Na^+, NH4^+, K^+, Mg^2+, and Ca^2+ (Dionex). The mean mass of sodium urinated for every group in the 16 h period was determined with the vehicle group usually urinating approximately 21 mg sodium. The urine Na (uNa) for rats in the test groups were expressed as a percentage of the vehicle mean and the means were compared to that of the vehicle group by utilizing a one-way analysis of variance coupled with a Dunnett's post hoc test.

Rat NHE-3 [3] = biological target: T1, Rat NHE-3; experiment: Cell-based assay of NHE-3 activity (rat NHE-3 prompt inhibition); conditions: OK cells with rat NHE-3 gene, compound present during pH recovery
Outline: (§1)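 Opossum kidney cells electroporated with rat or human NHE-3, loaded with 5 μM BCECF-AM in NH4Cl-HEPES pH 7.4 for 30 min at RT, then acidified 10 min in Na+-free choline HEPES. Na+-dependent pH recovery rates from BCECF fluorescence, averaged over ≥2 replicates, gave pIC50.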

human NHE-3 = biological target: T2, human NHE-3 (Homo sapiens, UniProt P48764); experiment: Cell-based assay of NHE-3 activity (human NHE3 inhibition assay); conditions: OK cells with human NHE-3 gene, BCECF pH dye, 0-30 μM test compound
T2 construct: expressed in transfected cells; host or cells: Opossum kidney (OK) cells (ATCC), transfected by electroporation
T2 sequence (P48764 26-834): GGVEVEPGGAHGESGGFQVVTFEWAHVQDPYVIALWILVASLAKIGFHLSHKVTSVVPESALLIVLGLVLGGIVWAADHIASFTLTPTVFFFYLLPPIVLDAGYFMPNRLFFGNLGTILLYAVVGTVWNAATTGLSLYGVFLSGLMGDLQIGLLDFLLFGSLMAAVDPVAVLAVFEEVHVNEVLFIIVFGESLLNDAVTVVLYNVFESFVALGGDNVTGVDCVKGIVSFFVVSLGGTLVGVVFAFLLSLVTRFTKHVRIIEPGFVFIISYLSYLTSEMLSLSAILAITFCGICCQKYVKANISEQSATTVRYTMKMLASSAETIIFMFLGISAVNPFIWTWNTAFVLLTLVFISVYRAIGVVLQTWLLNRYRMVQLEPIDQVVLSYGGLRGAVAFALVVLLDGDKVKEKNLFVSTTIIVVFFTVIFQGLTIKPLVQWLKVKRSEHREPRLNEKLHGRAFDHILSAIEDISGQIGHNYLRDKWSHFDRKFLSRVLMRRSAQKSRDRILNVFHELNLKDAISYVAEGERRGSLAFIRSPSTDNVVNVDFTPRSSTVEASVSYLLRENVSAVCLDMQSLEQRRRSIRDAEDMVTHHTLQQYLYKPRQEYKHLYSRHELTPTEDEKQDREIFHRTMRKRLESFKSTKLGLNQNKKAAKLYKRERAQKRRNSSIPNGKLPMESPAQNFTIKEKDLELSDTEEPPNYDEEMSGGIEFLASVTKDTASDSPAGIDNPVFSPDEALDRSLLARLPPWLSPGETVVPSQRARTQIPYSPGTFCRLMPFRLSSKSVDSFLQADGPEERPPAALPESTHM
Outline: as §1

Row | SMILES | Rat NHE3 pIC50 (persistent) (Rat NHE-3 [1]) | response vs control in vivo at 3 mg/kg [2] [%] | Rat NHE3 pIC50 (prompt) (Rat NHE-3 [3]) | Human NHE3 pIC50 (human NHE-3) | IC50 (Rat NHE-3 [1]; read-out: Rat NHE3 pIC50 (persistent) (converted)) [nM] | IC50 (Rat NHE-3 [3]; read-out: Rat NHE3 pIC50 (prompt) (converted)) [nM] | IC50 (human NHE-3; read-out: Human NHE3 pIC50 (converted)) [nM]
1 | CN1CCN(C(=O)NC(CCC(=O)NCCOCCOCCNS(=O)(=O)c2cccc([C@@H]3CN(C)Cc4c(Cl)cc(Cl)cc43)c2)(CCC(=O)NCCOCCOCCNS(=O)(=O)c2cccc([C@@H]3CN(C)Cc4c(Cl)cc(Cl)cc43)c2)CCC(=O)NCCOCCOCCNS(=O)(=O)c2cccc([C@@H]3CN(C)Cc4c(Cl)cc(Cl)cc43)c2)CC1 [Example 41] | C (C NHE3 pIC50 > 7) | < 35 | B (B NHE3 pIC50 5-7) | C (C NHE3 pIC50 > 7) | – | – | –
2 | CN1Cc2c(Cl)cc(Cl)cc2[C@H](c2cccc(S(=O)(=O)NCCOCCOCCNC(=O)N(C)CCCN(CCCN(C)C(=O)NCCOCCOCCNS(=O)(=O)c3cccc([C@@H]4CN(C)Cc5c(Cl)cc(Cl)cc54)c3)CCCN(C)C(=O)NCCOCCOCCNS(=O)(=O)c3cccc([C@@H]4CN(C)Cc5c(Cl)cc(Cl)cc54)c3)c2)C1 [Example 47, (S)—N,N′-(15-(1-(3-((S)-6,8-dichloro-2-methyl-1,2,3,4-tetrahydroisoquinolin-4-yl)phenylsulfonamido)-11-methyl-10-oxo-3,6-dioxa-9,11-diazatetradecan-14-yl)-11,19-dimethyl-10,20-dioxo-3,6,24,27-tetraoxa-9,11,15,19,21-pentaazanonacosane-1,29-diyl)bis(3-((S)-6,8-dichloro-2-methyl-1,2,3,4-tetrahydroisoquinolin-4-yl)benzenesulfonamide)] | – | 35 to 75 | – | – | < 100 | 100 to 10000 | < 100
3 | CN1Cc2c(Cl)cc(Cl)cc2[C@H](c2cccc(S(=O)(=O)NCCOCCOCCNC(=O)NCCN(CCNC(=O)NCCOCCOCCNS(=O)(=O)c3cccc([C@@H]4CN(C)Cc5c(Cl)cc(Cl)cc54)c3)CCNC(=O)NCCOCCOCCNS(=O)(=O)c3cccc([C@@H]4CN(C)Cc5c(Cl)cc(Cl)cc54)c3)c2)C1 [Example 53] | C (C NHE3 pIC50 > 7) | 35 to 75 | B (B NHE3 pIC50 5-7) | B (B NHE3 pIC50 5-7) | – | – | –
4 | CN1Cc2c(Cl)cc(Cl)cc2[C@H](c2cccc(S(=O)(=O)N(C)CCOCCOCCNC(=O)NCCCN(CCCNC(=O)NCCOCCOCCN(C)S(=O)(=O)c3cccc([C@@H]4CN(C)Cc5c(Cl)cc(Cl)cc54)c3)CCCNC(=O)NCCOCCOCCN(C)S(=O)(=O)c3cccc([C@@H]4CN(C)Cc5c(Cl)cc(Cl)cc54)c3)c2)C1 [Example 54] | C (C NHE3 pIC50 > 7) | > 75 | B (B NHE3 pIC50 5-7) | C (C NHE3 pIC50 > 7) | – | – | –
5 | CN1Cc2c(Cl)cc(Cl)cc2[C@H](c2cccc(S(=O)(=O)N(CCO)CCOCCOCCNC(=O)NCCCN(CCCNC(=O)NCCOCCOCCN(CCO)S(=O)(=O)c3cccc([C@@H]4CN(C)Cc5c(Cl)cc(Cl)cc54)c3)CCCNC(=O)NCCOCCOCCN(CCO)S(=O)(=O)c3cccc([C@@H]4CN(C)Cc5c(Cl)cc(Cl)cc54)c3)c2)C1 [Example 56] | C (C NHE3 pIC50 > 7) | 35 to 75 | C (C NHE3 pIC50 > 7) | C (C NHE3 pIC50 > 7) | – | – | –
6 | CCN(CCOCCOCCNC(=O)NCCCN(CCCNC(=O)NCCOCCOCCN(CC)S(=O)(=O)c1cccc([C@@H]2CN(C)Cc3c(Cl)cc(Cl)cc32)c1)CCCNC(=O)NCCOCCOCCN(CC)S(=O)(=O)c1cccc([C@@H]2CN(C)Cc3c(Cl)cc(Cl)cc32)c1)S(=O)(=O)c1cccc([C@@H]2CN(C)Cc3c(Cl)cc(Cl)cc32)c1 [Example 57] | C (C NHE3 pIC50 > 7) | 35 to 75 | B (B NHE3 pIC50 5-7) | C (C NHE3 pIC50 > 7) | – | – | –
7 | CN1Cc2c(Cl)cc(Cl)cc2[C@H](c2cccc(S(=O)(=O)NCCOCCOCCNC(=O)NCCC[N+](C)(CCCNC(=O)NCCOCCOCCNS(=O)(=O)c3cccc([C@@H]4CN(C)Cc5c(Cl)cc(Cl)cc54)c3)CCCNC(=O)NCCOCCOCCNS(=O)(=O)c3cccc([C@@H]4CN(C)Cc5c(Cl)cc(Cl)cc54)c3)c2)C1 [Example 58] | C (C NHE3 pIC50 > 7) | 35 to 75 | C (C NHE3 pIC50 > 7) | C (C NHE3 pIC50 > 7) | – | – | –
8 | CN1Cc2c(Cl)cc(Cl)cc2[C@H](c2cccc(S(=O)(=O)NCCOCCOCCNC(=O)NCCCC(CCCNC(=O)NCCOCCOCCNS(=O)(=O)c3cccc([C@@H]4CN(C)Cc5c(Cl)cc(Cl)cc54)c3)(CCCNC(=O)NCCOCCOCCNS(=O)(=O)c3cccc([C@@H]4CN(C)Cc5c(Cl)cc(Cl)cc54)c3)NC(=O)CCC(=O)O)c2)C1 [Example 63] | C (C NHE3 pIC50 > 7) | 35 to 75 | C (C NHE3 pIC50 > 7) | C (C NHE3 pIC50 > 7) | – | – | –
9 | CN1Cc2c(Cl)cc(Cl)cc2[C@H](c2cccc(S(=O)(=O)NCCOCCOCCNC(=O)NCCCC(CCCNC(=O)NCCOCCOCCNS(=O)(=O)c3cccc([C@@H]4CN(C)Cc5c(Cl)cc(Cl)cc54)c3)(CCCNC(=O)NCCOCCOCCNS(=O)(=O)c3cccc([C@@H]4CN(C)Cc5c(Cl)cc(Cl)cc54)c3)NC(=O)COCC(=O)O)c2)C1 [Example 64] | C (C NHE3 pIC50 > 7) | 35 to 75 | C (C NHE3 pIC50 > 7) | C (C NHE3 pIC50 > 7) | – | – | –
